Assay results reported in patent US11890288B2, “Sulfonamide or sulfinamide compound having effect of inducing BRD4 protein degradation and pharmaceutical use thereof” (MITSUBISHI TANABE PHARMA CORPORATION, priority 2020, dated 2024).

Legend:
[1] = target: BRD4 protein (Homo sapiens (Human), UniProt O60885); experiment: BRD4 protein degradation inducing action in LNCaP cells (immunofluorescence, 6 hr); assay type: cell-based; settings: anti-BRD4 fluorescence intensity
Method: The degradation inducing action of the compound of the present invention on BRD4 proteins in cancer cells was evaluated in vitro using human prostate cancer LNCaP cells. LNCaP cells were suspended in 10% FBS/RPMI1640, seeded in a 96 well Cell carrier plate (Perkin Elmer) and cultured at 5% CO2, 37° C. overnight. A test compound dissolved in DMSO was diluted with 10% FBS/RPMI1640 and added and the cells were further cultured for 6 hr. After culturing, the cells were immobilized with 4% para-formaldehyde/PBS and further subjected to a permeation treatment with 0.25% Triton X-100/PBS. Thereafter, the cells were blocked with 10% BSA/PBS, Anti-BRD4 (Sigma-Aldrich) solution was added and the cells were incubated at 4° C. overnight. Furthermore, Goat anti-Rabbit IgG(H+L) Cross-Adsorbed Secondary Antibody, Alexa Fluor 546 (Thermo Fisher Scientific) solution, 0.5 μg/mL Hoechst 33342 (Sigma-Aldrich), and 14 μM Acti-Stain 555 Fluorescent Phalloidin (Cytoskeleton) were added. After incubation for 1 hr, BRD4 protein amount was measured by Operetta (Perkin Elmer) as fluorescence intensity (excitation: 560 nm, emission: 572 nm). The BRD4 protein degradation inducing activity of the compound of the present invention in LNCaP cells is shown in DC50 value in Table 3. The DC50 value is a concentration of the compound showing 50% fluorescence intensity when the fluorescence intensity thereof under compound untreated condition is 100%. It was calculated from the straight line connecting the fluorescence intensity at two points enclosing the 50% fluorescence intensity and the compound concentration.

[2] = tested on: human prostate cancer LNCaP cells; experiment: Cytotoxic action on LNCaP cells (WST-8, 96 hr); assay type: cell-based; settings: 96 hr culture
Method: The cytotoxic action of the compound of the present invention against human cancer cells was evaluated in vitro. In this experiment, (+)-JQ1 (Nature volume 468, pages 1067-1073 (23 Dec. 2010)) known to have an inhibitory activity on the binding of BRD4 protein and a ligand therefor was used as a positive control drug. Respective cells were suspended in 10% FBS/RPMI1640, seeded in a 96 well plate and cultured at 5% CO2, 37° C. overnight. A test compound dissolved in DMSO was diluted with 10% FBS/RPMI1640 and added and the cells were further cultured for 96 hr. After culturing, the viable cell number was measured using a cell number measurement WST-8 kit (Kishida Chemical Co., Ltd.). As a control, the measurement was performed under conditions free of the test compound. The cytotoxic activity of the compound of the present invention against human prostate cancer LNCaP cells is shown in IC50 value in Table 1. The IC50 value is a concentration of the compound showing 50% cell survival rate when the cell survival rate thereof under compound untreated condition is 100%. It was calculated from the straight line connecting the cell survival rate at two points enclosing the 50% cell survival rate and the compound concentration. In addition, the cytotoxic activity against respective cancer cells of human acute myeloid leukemia MV-4-11 cell, human chronic myeloid leukemia K562 cell, human multiple myeloma MM.1S cell, human diffuse large B-cell lymphoma SU-DHL-6 cell, human T-cell leukemia Jurkat cells, human Burkitt lymphoma Raji cell, human castration-resistant prostate cancer PC-3 cell, human AR-V7 positive castration-resistant prostate cancer 22Rv1 cell, human ovarian cancer A2780 cell, human cisplatin-resistant ovarian cancer SK-OV-03 cell, human bladder cancer 5637 cell, human breast cancer ZR-75-1 cell, human triple negative breast cancer MDA-MB-231 cell, human uterus cervix cancer HeLa cell, human uterine sarcoma MES-SA cell, human stomach cancer SNU-16 cell, human non-small cell lung cancer NCI-H2126 cell, human EGFRT790M mutation-positive non-small cell lung cancer NCI-H1975 cell, human small cell lung cancer NCI-H82 cell, human large cell lung cancer NCI-H460 cell, human colon cancer HCT116 cell, human glioma U-87 MG cell, human pancreatic cancer BxPC-3 cell, human liver cancer HLF cell, human bile duct cancer HuCCT1 cell, human renal cell cancer 786-O cell, and human fibrosarcoma HT1080 cell is shown in IC50 value in Table 2.

Structure (SMILES)	DC50 [1] [nM]	IC50 [2] [nM]
Cc1sc2c(c1C)C(c1ccc(-c3ccc(C(=O)NCc4ccc(S(=O)(=O)Nc5ccc(C)c6c(C#N)c[nH]c56)cc4)cc3F)cc1)=N[C@@H](CC(=O)OC(C)(C)C)c1nnc(C)n1-2 [Example Compound 142, t-butyl [(6S)-4-{4′-[({4-[(3-cyano-4-methyl-1H-indol-7-yl)sulfamoyl]phenyl}methyl)carbamoyl]-2′-fluoro[1,1′-biphenyl]-4-yl)-2,3,9-trimethyl-6H-thieno[3,2-f][1,2,4]triazolo[4,3-a][1,4]diazepin-6-yl]acetate]	0.51	1.3
COC(=O)C[C@@H]1N=C(c2ccc(-c3ccc(C(=O)NCCc4ccc(S(=O)(=O)Nc5ccc(C)c6c(C#N)c[nH]c56)cc4)cc3Cl)cc2)c2c(sc(C)c2C)-n2c(C)nnc21 [Example 48, methyl [(6S)-4-{2′-chloro-4′-[(2-{4-[(3-cyano-4-methyl-1H-indol-7-yl)sulfamoyl]phenyl}ethyl)carbamoyl][1,1′-biphenyl]-4-yl}-2,3,9-trimethyl-6H-thieno[3,2-f][1,2,4]triazolo[4,3-a][1,4]diazepin-6-yl]acetate]	0.3	0.49
COC(=O)C[C@@H]1N=C(c2ccc(-c3ccc(C(=O)N[C@H](C)c4ccc(S(=O)(=O)Nc5ccc(C)c6c(C#N)c[nH]c56)cc4)c(C)c3)cc2)c2c(sc(C)c2C)-n2c(C)nnc21 [Example 86, methyl [(6S)-4-(4′-{[(1R)-1-{4-[(3-cyano-4-methyl-1H-indol-7-yl)sulfamoyl]phenyl}ethyl]carbamoyl}-3′-methyl[1,1′-biphenyl]-4-yl)-2,3,9-trimethyl-6H-thieno[3,2-f][1,2,4]triazolo[4,3-a][1,4]diazepin-6-yl]acetate]	0.059	0.35
Cc1sc2c(c1C)C(c1ccc(-c3ccc(C(=O)NCCc4ccc(S(=O)(=O)Nc5ccc(C)c6c(C#N)c[nH]c56)cc4)cc3)cc1)=N[C@@H](CC(=O)OC(C)(C)C)c1nnc(C)n1-2 [Example 64, t-butyl [(6S)-4-{4′-[(2-{4-[(3-cyano-4-methyl-1H-indol-7-yl)sulfamoyl]phenyl}ethyl)carbamoyl][1,1′-biphenyl]-4-yl}-2,3,9-trimethyl-6H-thieno[3,2-f][1,2,4]triazolo[4,3-a][1,4]diazepin-6-yl]acetate]	0.13	0.25
CCc1ccc(NS(=O)(=O)c2ccc(CCNC(=O)c3ccc(-c4ccc(C5=N[C@@H](CC(=O)OC(C)(C)C)c6nnc(C)n6-c6sc(C)c(C)c65)cc4)cc3)cc2)c2[nH]cc(C#N)c12 [Example Compound 137, t-butyl [(6S)-4-{4′-[(2-{4-[(3-cyano-4-ethyl-1H-indol-7-yl)sulfamoyl]phenyl}ethyl)carbamoyl][1,1′-biphenyl]-4-yl}-2,3,9-trimethyl-6H-thieno[3,2-f][1,2,4]triazolo[4,3-a][1,4]diazepin-6-yl]acetate]	0.13	0.48
CCOC(=O)C[C@@H]1N=C(c2ccc(-c3ccc(C(=O)NCc4ccc(S(=O)(=O)Nc5ccc(C)c6c(C#N)c[nH]c56)cc4)cc3)cc2)c2c(sc(C)c2C)-n2c(C)nnc21 [Example Compound 129, ethyl [(6S)-4-{4′-[({4-[(3-cyano-4-methyl-1H-indol-7-yl)sulfamoyl]phenyl}methyl)carbamoyl][1,1′-biphenyl]-4-yl}-2,3,9-trimethyl-6H-thieno[3,2-f][1,2,4]triazolo[4,3-a][1,4]diazepin-6-yl]acetate]	0.033	0.048
COC(=O)C[C@@H]1N=C(c2ccc(-c3cnc(C(=O)NCc4ccc(S(=O)(=O)Nc5ccc(C)c6c(C#N)c[nH]c56)cc4)cn3)cc2)c2c(sc(C)c2C)-n2c(C)nnc21 [Example 65, methyl [(6S)-4-(4-{5-[({4-[(3-cyano-4-methyl-1H-indol-7-yl)sulfamoyl]phenyl}methyl)carbamoyl]pyrazin-2-yl}phenyl)-2,3,9-trimethyl-6H-thieno[3,2-f][1,2,4]triazolo[4,3-a][1,4]diazepin-6-yl]acetate]	0.036	0.071
COC(=O)C[C@@H]1N=C(c2ccc(-c3ccc(C(=O)NCCc4ccc(S(=O)(=O)Nc5ccc(C)c6c(C#N)c[nH]c56)cc4)cc3C)cc2)c2c(sc(C)c2C)-n2c(C)nnc21 [Example 89, methyl [(6S)-4-{4′-[(2-{4-[(3-cyano-4-methyl-1H-indol-7-yl)sulfamoyl]phenyl}ethyl)carbamoyl]-2′-methyl [1,1′-biphenyl]-4-yl}-2,3,9-trimethyl-6H-thieno[3,2-f][1,2,4]triazolo[4,3-a][1,4]diazepin-6-yl]acetate]	0.8	0.33
COC(=O)C[C@@H]1N=C(c2ccc(-c3ccc(C(=O)NCc4ccc(S(=O)(=O)Nc5ccc(C)c6c(C#N)c[nH]c56)cc4)c(Cl)c3)cc2)c2c(sc(C)c2C)-n2c(C)nnc21 [Example 3, methyl [(6S)-4-{3′-chloro-4′-[({4-[(3-cyano-4-methyl-1H-indol-7-yl)sulfamoyl]phenyl}methyl)carbamoyl][1,1′-biphenyl]-4-yl}-2,3,9-trimethyl-6H-thieno[3,2-f][1,2,4]triazolo[4,3-a][1,4]diazepin-6-yl]acetate]	0.42	0.092
COC(=O)C[C@@H]1N=C(c2ccc(-c3ccc(C(=O)N[C@H](C)c4ccc(S(=O)(=O)Nc5ccc(C)c6c(C#N)c[nH]c56)cc4)c(F)c3F)cc2)c2c(sc(C)c2C)-n2c(C)nnc21 [Example 99, methyl [(6S)-4-(4′-{[(1R)-1-{4-[(3-cyano-4-methyl-1H-indol-7-yl)sulfamoyl]phenyl}ethyl]carbamoyl}-2′,3′-difluoro[1,1′-biphenyl]-4-yl)-2,3,9-trimethyl-6H-thieno[3,2-f][1,2,4]triazolo[4,3-a][1,4]diazepin-6-yl]acetate]	0.091	0.14
CCc1ccc(NS(=O)(=O)c2ccc(CNC(=O)c3ccc(-c4ccc(C5=N[C@@H](CC(=O)OC)c6nnc(C)n6-c6sc(C)c(C)c65)cc4)cc3F)cc2)c2[nH]cc(C#N)c12 [Example 112, methyl [(6S)-4-{4′-[({4-[(3-cyano-4-ethyl-1H-indol-7-yl)sulfamoyl]phenyl}methyl)carbamoyl]-3′-fluoro[1,1′-biphenyl]-4-yl}-2,3,9-trimethyl-6H-thieno[3,2-f][1,2,4]triazolo[4,3-a][1,4]diazepin-6-yl]acetate]	0.25	0.44
Cc1sc2c(c1C)C(c1ccc(-c3cc(Cl)c(C(=O)NCc4ccc(S(=O)(=O)Nc5ccc(C)c6c(C#N)c[nH]c56)cc4)cc3F)cc1)=N[C@@H](C)c1nnc(C)n1-2 [Example 71, 5-chloro-N-({4-[(3-cyano-4-methyl-1H-indol-7-yl)sulfamoyl]phenyl}methyl)-2-fluoro-4′-[(6S)-2,3,6,9-tetramethyl-6H-thieno[3,2-f][1,2,4]triazolo[4,3-a][1,4]diazepin-4-yl][1,1′-biphenyl]-4-carboxamide]	0.32	0.61
COC(=O)C[C@@H]1N=C(c2ccc(-c3ccc(C(=O)N[C@H](C)c4ccc(S(=O)(=O)Nc5ccc(C)c6c(C#N)c[nH]c56)cc4)c(F)c3)cc2)c2c(sc(C)c2C)-n2c(C)nnc21 [Example 69, methyl [(6S)-4-(4′-{[(1R)-1-{4-[(3-cyano-4-methyl-1H-indol-7-yl)sulfamoyl]phenyl}ethyl]carbamoyl}-3′-fluoro[1,1′-biphenyl]-4-yl)-2,3,9-trimethyl-6H-thieno[3,2-f][1,2,4]triazolo[4,3-a][1,4]diazepin-6-yl]acetate]	0.056	0.12
